Measured values from patent publication US20220409595A1, “GLUCOSYLCERAMIDE SYNTHASE INHIBITORS” (GENZYME CORPORATION, priority 2013, published 2022).
“Also recorded” adds a separate entry of the source. Where two headings read alike, the source gives them in different places.

Experiments:
[1] = system: Fabry iPSC-derived cardiomyocytes; test: Immunocytochemistry of GL-3 and Lamp2 in Fabry iPSC-derived cardiomyocytes; assay type: cell-based, human
Procedure: It was next determined whether the compound could reduce levels of accumulated GL-3 when significant GL-3 accumulation is present at the start of treatment (FIG. 4). Twenty eight post-start of differentiation, beating EBs were treated with 1 μM of GCS452 for 15 days. The EBs were dissociated and plated at the end of the treatment, and ICC analysis was performed. […] GL-3 reduction in treated Fabry EBs was confirmed by mass spectrometry. While there was a 13 to 18 fold increase of GL-3 in untreated FD cardiomyocytes compared to WT, GL-3 levels increased by 4.5 to 5.5 fold in treated FD cardiomyocytes after 15 days of treatment with GCS452. This corresponds to a 2.3 to 2.8 fold reduction in accumulated GL-3 as compared to GL-3 levels at the start point (TO) of treatment (FIG. 5B). In parallel, it was investigated whether agalsidase beta could clear accumulated GL-3 in one month old Fabry cardiomyocytes. EBs were treated with 0.3p g/mL of agalsidase beta for 5 days and GL-3 content was analyzed as described for GCS452. GL-3 vacuoles were not detected in treated Fabry cardiomyocytes using ICC (FIG. 5C). […] One month old beating EBs were harvested and dissociated by using the embryoid body dissociation kit (Miltenyi Biotech, Bergisch Gladbach). Dissociated cells were plated on matrigel coated dishes. Five days latter, cells were fixed using 8% de formaldehyde solution (Sigma-Aldrich, St. Louis, Mo.) in DPBS (Gibco, Carlsbad, Calif.) and permeabilized in 0.05% Tween 20 (Sigma Life Science, St. Louis, Mo.) 20 minutes at room temperature. The samples were incubated with the primary antibodies over night at 4° C. Secondary antibodies were applied one hour at room temperature. Primary antibodies used were mouse monoclonal IgG1 directed against—Actinin, at the final dilution 1/1500 (Sigma Life Science, St. Louis, Mo.), rat monoclonal IgM directed against GL-3/CD77, at the final dilution 1/300 (Abcam, Cambridge, US) and mouse monoclonal IgG1 directed against LAMP2, at the final dilution 1/500 (Santa Cruz Biotechnology, Dallas, Tex.). The secondary antibodies were Alexa Fluor 488 goat anti-mouse IgG (Molecular Probes, Carlsbad, Calif.) Alexa Fluor 555 goat anti-mouse IgG (Molecular Probes, Carlsbad, Calif.) and Alexa Fluor 488 goat anti-rat IgG (Molecular Probes, Carlsbad, Calif.). They were used at the final dilution 1/1000.

[2] = system: Fabry iPSC-derived cardiomyocytes; test: GL-3 content of Fabry iPSC-derived cardiomyocytes (beating EBs) by mass spectrometry; assay type: cell-based, human
Procedure: GCS452 [(S)-quinuclidin-3-yl (2-(2-(4-fluorophenyl)thiazol-4-yl)propan-2-yl) carbamate], a selective glucosylceramide synthase inhibitor, was tested to evaluate its potential to prevent GL-3 accumulation in Fabry iPSC-derived cardiomyocytes. EBs were treated eighteen days after induction of cardiac differentiation. At this time point, accumulation was low in the FD cardiomyocytes (FIG. 4). The FD and WT cardiomyocytes were treated with 1 μM GCS452 for 15 days.
It was next determined whether the compound could reduce levels of accumulated GL-3 when significant GL-3 accumulation is present at the start of treatment (FIG. 4). […]
In parallel, it was investigated whether agalsidase beta could clear accumulated GL-3 in one month old Fabry cardiomyocytes. EBs were treated with 0.3p g/mL of agalsidase beta for 5 days and GL-3 content was analyzed as described for GCS452. GL-3 vacuoles were not detected in treated Fabry cardiomyocytes using ICC (FIG. 5C). […]
Pellets containing EBs were extracted in a solution of acetonitrile:methanol (1:1). The extracts were directly injected onto a 2.1×100 mm, 1.7 μM BEH Hilic column (Waters), resolved with a Waters Acquity UPLC system, and analyzed for C16, C18, C20, C22, C23, C24, C24:1, C24(OH), and C24:1(OH) GL-3 isoforms and lyso-GL-3 in multiple-reaction monitoring (MRM) and positive-ion mode with an API-4000 mass spectrometer (ABSciex, Framingham, Mass.). […]

[3] = system: K14 mouse model of type 2 Gaucher disease; conditions: cited from earlier work
Fabry patients = conditions: cited from earlier work
[4] = 1 μM for 15 days, treatment from day 28
[5] = 3 μg/mL, one month old Fabry iPSC-derived cardiomyocytes, end of treatment
[6] = 0.3p g/mL for 5 days, one month old Fabry cardiomyocytes

Compound: CC(C)(NC(=O)O[C@@H]1CN2CCC1CC2)c1csc(-c2ccc(F)cc2)n1 [GCS452, (S)-quinuclidin-3-yl (2-(2-(4-fluorophenyl)thiazol-4-yl)propan-2-yl) carbamate]
- GL-3 labeling (ICC) [1, 4]: not or was very slightly detectable; also recorded: significant reduction
- Lamp2 signal intensity / number of Lamp2 vacuoles (ICC) [1, 4]: reduced; also recorded: concomitant decrease
- GL-3 levels / accumulation in treated FD cardiomyocytes (prevention) ([2]; 1 μM for 15 days, treatment from day 18 after induction of cardiac differentiation): close to the physiological levels of WT untreated cells

Compound: CC(C)(NC(=O)OC1CN2CCC1CC2)c1cccc(-c2ccc(F)cc2)c1 (centres unmarked) [Gz161, Quinuclidin-3-yl (2-(4′-fluoro-[1,1′-biphenyl]-3-yl)propan-2-yl)carbamate]
- brain neuropathology [3]: reduced
- lifespan [3]: extended
- brain GluCer and GluSph ([3]; see Examples 122-125 of WO2012/129084): reduce

Compound: agalsidase beta: recombinant α-GalA, enzyme replacement therapy approved for the treatment of Fabry disease
- GL-3 content (ICC), FIG. 5C legend [1, 5]: not or was very slightly detectable
- number of Lamp2 vacuoles and intensity of the signal (ICC), FIG. 5C legend [1, 5]: reduced
- GL-3 vacuoles (ICC) [1, 6]: not detected
- GL-3 clearance in Fabry cardiomyocytes [2, 6]: Complete clearance; also recorded: clearance of GL-3
- GL-3 deposits / accumulation in cardiomyocytes (Fabry patients; Fabry patients, cardiac biopsies, after 5 and 12 months of treatment): not reduced; also recorded: no effect
- GL-3 deposits in capillary endothelium / heart microvasculature (Fabry patients; Fabry patients): effectively clears
- GL-3 deposits in capillary endothelium / heart microvasculature (Fabry patients; Fabry patients, listed as Agalsidase beta): consistently clear
- left ventricular mass (Fabry patients; treated Fabry patients): Modest reductions
